Laboratory results reported in patent publication US9744156B2, “Methods and compositions for enhanced transungual delivery of AR-12” (Arno Therapeutics, Inc., priority 2015, dated 2017).
Where two headings read alike, the source gives them in different places.

Experiments:
[1] = In vitro permeation across cadaver nail plate in modified Franz diffusion cell; assay type: in vitro ADME, human
Experimental: The permeation study was performed in Franz diffusion cells fitted with nail adapter. The finger nails (from all fingers except the little finger) of human cadavers obtained from ScienceCare were used for the transport studies. The nail plates were cleaned with water, and nail plates of 400-450 micron thickness were selected and visually inspected for presence of any cracks or pores. After mounting on the diffusion cell, the donor as well as the receiver compartments were filled with phosphate buffered saline […] and allowed to equilibrate for 3 hours for complete hydration of the nail plate. The electrical resistivity across the nail plate was measured prior to removal of the buffer to check the intactness of the nail plate after hydration.
The permeation testing was performed using modified Franz diffusion cell. The cell consisted of two compartments: a (1) a donor compartment for placing the drug solution/formulation and (2) a receiver compartment containing the buffer in which the drug diffuses. A nail holder is placed between the two compartments. The nail holder is curved to accommodate the contour of nail plate and secures the nail between the upper and lower part of the holder.
The donor compartment was filled with 500 microliters of drug solution (50 mg/ml) prepared in ethyl alcohol. For the control sample, no enhancer was incorporated. In the test cells, the enhancer was incorporated (5% PEG or 5% dexpanthenol or both). The donor compartment was covered with parafilm to minimize the loss of solvent. The drug solution was removed every 2 hours, the donor compartment was washed two times with 500 microliters of alcohol, and fresh drug solution (50 mg/ml) was placed in the donor compartment. […] The receiver compartment fluid was sampled at predetermined time points (e.g., 0, 12, 24, 36, 48, 60, 72, 84, 96, 108, 120, 132, 144, 156, 192, 204, […]) and the amount of drug permeated across the nail plate was quantitated by high pressure liquid chromatography.

[2] = 5% enhancer in 5% w/v AR-12 solution in ethanol, 24 h; FIG. 1

NCC(=O)Nc1ccc(-n2nc(C(F)(F)F)cc2-c2ccc3c(ccc4ccccc43)c2)cc1 [AR-12, 2-amino-N-(4-(5-(phenanthren-2-yl)-3-(trifluoromethyl)-1H-pyrazol-1-yl)phenyl)acetamide]
amount of drug permeated in a one week period across the nail plate ([1]; control, no enhancer, drug solution 50 mg/ml in ethyl alcohol, one week): 658 ± 306 ng

polyethylene glycol 400 [PEG-400]
enhancement of permeation flux of AR-12 across the nail plate [1]: about six fold

CC(C)(CO)[C@@H](O)C(=O)NCCCO [dexpanthenol]
suitability as enhancer for trans-ungual delivery of AR-12 (AR-12 accumulated in nail plate) [2]: preferred enhancers | enhancement of permeation flux of AR-12 across the nail plate ([1]; 5% enhancer in AR-12 solution (50 mg/ml in ethyl alcohol) versus control without enhancer, one week, FIG. 2): four fold
